In US10336687B2, “Selected amide of Y-hydroxybutyric acid and uses thereof in the treatment of alcohol misuse” (priority 2015, dated 2019):
Like-named read-outs stand apart in the source and are kept apart here. Marks after values point to notes of the source that are not given here.

What was measured:
[1] = tested on: Sardinian alcohol preferring (sP) rats; test: Operant self-administration of alcohol, fixed ratio FR4; format: in vivo, rat
Text: (§1) In these procedures sP rats were trained to self-administer alcohol or sucrose by pressing a lever, and the amount of work (lever pressing) requested to obtain alcohol, varied according with the aim of the single schedule of reinforcement, Fixed ratio (FR) or Progressive ratio (PR).
(§2) Sucrose solution (3% w/v) was systematically employed in these experiments as alternative reinforcer, in order to assess if test compounds exert a selective effect on the alcohol solution (15% v/v) self-administration.
(§3) In the FR the rat obtain alcohol or sucrose in response to four consecutive lever pressing (FR4), while in the PR the number of lever pressing necessary to obtain alcohol or sucrose increased progressively till the rat stop pressing the lever (Break point; BP). Each FR4 or PR/BP session lasted 30 minutes.

hippocampal slices [2] = test: Basal GABA and glutamate outflow in hippocampal slices; format: cell-based, rat; details: 10 and 100 μM
Protocol: (§4) Based on previous results obtained for GET 73, which influences the aminoacidergic neurotransmission in the rat hippocampus, probably through a complex modulation of the metabotropic glutamate receptors subtype 5 (mGluR5) (Beggiato et al., 2013; Ferraro et al., 2011, 2013) the positional isomer ACGET61 was evaluated in vitro in hippocampal slices, by measuring GABA and glutamate levels in different experimental conditions.

mGluR5 [3] = biological target: T1, mGluR5 (Rattus norvegicus, UniProt P31424); test: Increase in K+-evoked glutamate outflow induced by the mGluR5 receptor agonist CHPG in hippocampal slices; format: cell-based; details: CHPG 100 μM
T1 construct: from tissue; host or cells: hippocampal slices
Protocol: as §4
The interaction of ACGET61 with the mGluR5 agonist CHPG was explored in KCl stimulated hippocampal slices. […] Specifically, FIG. 5—KCl stimulated Hippocampal slices—K^+ evoked glutamate outflow. The effect of ACGET61 300 pM on the increase in glutamate outflow induced by CHPG 100 μM. ** p<0.01 vs Control; ^∘ p<0.05 vs ACGET61+CHPG.

[4] = tested on: primary cultures of rat hippocampal neurons; format: cell-based; details: for Minimum effective concentration for neuroprotective effects: hippocampal neurons chronically exposed to ethanol, cell viability and ROS production
Text: (§5) The neurotoxic effects of alcohol have been well documented, both in animals and humans, and the hippocampus represents a brain area particular sensitive to the detrimental effects of alcohol. Different preclinical models have been employed for studying the neurotoxic effects of alcohol. One of these models consists in exposing organotypic hippocampal cultures to alcohol, which exerts various effects, including a reduction in cell viability, and an increase in reactive oxygen species (ROS).
(§6) Briefly, primary cultures of rat hippocampal neurons were chronically exposed to ethanol (75 mM; 4 days) and the neuroprotective effects of ACGET61 were assessed by evaluating cell viability (MTT assay), and reactive oxygen species production (rhodamine 123 fluorescence).

hippocampal slices [5] = test: K+-evoked GABA and glutamate outflow in KCl stimulated hippocampal slices; format: cell-based, rat
Protocol: as §4
Additional studies aimed at exploring the effect of ACGET61 (10 pM-10 μM) in KCl stimulated hippocampal slices were carried out.

[6] = tested on: Sardinian alcohol preferring (sP) rats; test: Maintenance of alcohol intake, 2-bottle free choice regimen between alcohol (10% v/v) and water; format: in vivo, rat; details: acute oral administration
Text: Anti-alcohol profile of ACGET61 in Sardinian alcohol preferring (sP) rats Sardinian alcohol preferring (sP) rats represents one of the few rat lines selectively bred worldwide for high ethanol preference and consumption (Colombo et al., 2006) and are utilized in multiple experimental procedures validated for the evaluation of different aspects of alcohol drinking. These experimental procedures include Maintenance of alcohol intake, and Operant self-administration of alcohol.
In this procedure sP rats were exposed to a 2-bottle free choice regimen between alcohol (10% v/v) and water. Under this condition, the animals can choose between a bottle containing the alcohol solution and a bottle containing water, and voluntarily consume about 6 g/kg/day of alcohol, with a preference for alcohol of about 90%.

[7] = tested on: primary cultures of rat hippocampal neurons; format: cell-based
Text: as §5, §6
Ethanol exposure induced a significant increase in the ROS production (p<0.001), measured by the fluorescence emission of rhodamine 123.

[8] = tested on: Sardinian alcohol preferring (sP) rats; test: Operant self-administration of alcohol, progressive ratio / break point (PR/BP); format: in vivo, rat; details: for Effective Doses mg/kg: PR/BP model, sP rats
Text: as §1, §2, §3

[9] = tested on: Sardinian alcohol preferring (sP) rats; details: 2-bottle free choice model; cited from earlier work
mGluR5 [10] = biological target: T1, mGluR5; details: GET73, same model; cited from earlier work
[11] = cited from earlier work
[12] = FR4 model, sP rats, GET 73 tested up to 50
[13] = 0.01-10 μM, cultures not exposed to ethanol

T1 sequence (P31424 21-1203): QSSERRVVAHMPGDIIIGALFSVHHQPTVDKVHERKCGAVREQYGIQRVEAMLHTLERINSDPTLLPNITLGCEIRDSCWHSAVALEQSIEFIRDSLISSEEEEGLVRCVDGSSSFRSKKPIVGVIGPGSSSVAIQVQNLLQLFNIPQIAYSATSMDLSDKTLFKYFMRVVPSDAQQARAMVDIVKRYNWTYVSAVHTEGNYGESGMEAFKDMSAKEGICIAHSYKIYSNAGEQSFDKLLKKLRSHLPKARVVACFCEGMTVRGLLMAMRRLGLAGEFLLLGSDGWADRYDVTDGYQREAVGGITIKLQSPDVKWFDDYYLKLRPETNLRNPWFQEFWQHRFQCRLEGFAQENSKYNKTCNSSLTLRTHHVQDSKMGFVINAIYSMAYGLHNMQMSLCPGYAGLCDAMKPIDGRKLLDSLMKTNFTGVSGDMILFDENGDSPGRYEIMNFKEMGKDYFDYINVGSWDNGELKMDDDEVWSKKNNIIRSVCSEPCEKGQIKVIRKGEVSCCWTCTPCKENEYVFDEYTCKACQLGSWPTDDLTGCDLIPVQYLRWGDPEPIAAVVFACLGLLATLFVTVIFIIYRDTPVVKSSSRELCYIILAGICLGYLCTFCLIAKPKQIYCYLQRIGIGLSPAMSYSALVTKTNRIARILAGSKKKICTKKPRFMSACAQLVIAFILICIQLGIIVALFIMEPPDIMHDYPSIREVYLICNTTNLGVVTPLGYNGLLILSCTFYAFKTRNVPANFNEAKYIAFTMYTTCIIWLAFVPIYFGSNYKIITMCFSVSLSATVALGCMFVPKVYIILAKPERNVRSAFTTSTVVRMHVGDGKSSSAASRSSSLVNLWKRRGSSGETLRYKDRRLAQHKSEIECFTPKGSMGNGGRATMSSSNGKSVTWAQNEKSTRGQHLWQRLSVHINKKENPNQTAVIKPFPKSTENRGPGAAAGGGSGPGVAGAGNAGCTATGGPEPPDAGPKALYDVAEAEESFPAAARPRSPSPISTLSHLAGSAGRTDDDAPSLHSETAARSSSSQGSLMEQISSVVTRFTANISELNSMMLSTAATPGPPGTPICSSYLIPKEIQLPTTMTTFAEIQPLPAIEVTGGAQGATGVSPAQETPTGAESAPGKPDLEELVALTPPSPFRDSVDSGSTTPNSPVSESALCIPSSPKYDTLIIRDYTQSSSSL

In the case of `COCCCC(=O)NCc1ccccc1C(F)(F)F` [ACGET61, N-[(2-trifluoromethyl)benzyl]-4-methoxybutyramide], the “Effect on FR4 operant self-administration of alcohol (lever responses, alcohol and sucrose intake)” value ([1]; 100 mg/kg, 30 min session, p<0.05 vs vehicle) is reported as “selective reducing effect on the reinforcing properties of alcohol”, the “Effective Doses” value [1, 12] is reported as 100 mg/kg and the “Effect on basal release of GABA and glutamate” value (hippocampal slices [2]) is reported as “No effects”. For the same compound, the “Effect on the increase in K+-evoked glutamate outflow exerted by CHPG” value (mGluR5 [3]; ACGET61 300 pM) was “able to counteract, at least in part”, the “Concentration inhibiting CHPG-induced increase of glutamate in hippocampal slices” value (mGluR5 [3]; KCl stimulated slices) was 300 pM and the “Cellular viability, compound by itself” value [4, 13] was “did not affect cellular viability”. For the same compound, the “Cell viability in ethanol exposed cultures” value ([4]; 0.1, 1, and 10 μM added 1 hour before and during ethanol 75 mM, 4 days, p<0.05 vs ethanol) was “prevented the ethanol-induced damage”, the “Minimum effective concentration for neuroprotective effects” value [4] was 0.1 µM and the “K+-evoked glutamate outflow” value (hippocampal slices [5]; 100, 300, and 500 pM) was “modest non significant reduction”. The “Effect on K+-evoked GABA and glutamate outflow” value (hippocampal slices [5]; concentrations between 10 nM and 10 μM) was “did not exert overt effects”, the “K+-evoked GABA outflow” value (hippocampal slices [5]; highest concentration (10 μM)) was “significant decrease” and the Duration of effect ([6]; ACGET61, Maintenance model, sP rats) was 24 h. For the same compound, the “Effect on water and food intake” value ([6]; 25 to 100 mg/kg) was “without affecting water and food intake”, the “ROS production, compound by itself” value [7, 13] was “did not affect ROS production” and the “ROS production in ethanol exposed cultures” value ([7]; 0.1, 1, and 10 μM added 1 h before and during ethanol 75 mM, 4 days) was “prevented the ethanol-induced increase of ROS production”. The “Number of lever pressing and break point for alcohol” value ([8]; 50 and 100 mg/kg, PR, 30 min session) was “reduced”, the Response for sucrose ([8]; 50 and 100 mg/kg, PR, sucrose 3% w/v) was “able to reduce also the response for sucrose” and the “Effective Doses mg/kg” value ([8]; for alcohol and sucrose) was 50-100 * mg/kg.

For `NCC(CC(=O)O)c1ccc(Cl)cc1` (stereo not shown) [baclofen], the “Alcohol intake of sP rats” value [9] is given as “reduced”.

In the case of `O=C(O)CCCO` [GHB, gamma-hydroxybutyric acid], the “Alcohol intake of sP rats” value [9] is listed as “reduced”.

For `COCCCC(=O)NCc1ccc(C(F)(F)F)cc1` [GET 73, 4-methoxy-N-[[4-(trifluoromethyl)phenyl]methyl]-butanamide, reference compound], the “Effective Doses mg/kg” value [1, 12] is given as “No effect”, the “Effect in FR4 operant self-administration” value ([1]; GET73, same model) is given as “did not demonstrate any effects” and the “Concentration inhibiting CHPG-induced increase of glutamate in hippocampal slices” value (mGluR5 [10]) is given as 500 nM. For the same compound, the “Minimum effective concentration for neuroprotective effects” value [4] was 1 µM, the “Effect on PR operant self-administration of alcohol” value ([8]; GET73, same model) was “did not demonstrate any effects” and the Sucrose intake ([8]; PR, 50 mg/kg) was “significant reduction”. For the same compound, the “Effective Doses mg/kg” value ([8]; limited to sucrose) was 50 # mg/kg.

For `O=C(O)CCCO` [sodium oxybate], the “Time to peak plasma concentration” value ([11]; after oral administration) is listed as 30 to 45 min, the Bioavailability ([11]; in vivo) is listed as “about 30%” and the Half-life ([11]; in vivo) is listed as “about 30 minutes”.

In the case of `O=C1CC[C@@]2(O)[C@H]3Cc4ccc(O)c5c4[C@@]2(CCN3CC2CC2)[C@H]1O5` [naltrexone], the “Alcohol intake of sP rats” value [9] is listed as “reduced”.
